Columns and labels:
CH attacks = details: Di Lorenzo et al 2018; cited from earlier work
[1] = system: trigeminal autonomic cephalgia (left hemi-cephalgia), person; assay: case report: trigeminal autonomic cephalgia responsive to tricaprylin; format: in vivo, human
Description: A person presented with a history of waxing and waning left hemi-cephalgia over the course of 10 years. Their past medical history included bilateral loss of hearing (right worse than left) and past episodes of dizziness leading to a diagnosis of possible Menieres disease. They had hyperlipedemia controlled with a statin. They had some excess weight (BMI 30.8), was a vegetarian and was physically active.
The cephalgia was described as a dull achy non-throbbing pain that when present is continuous over the left side of the face and across the left scalp. The pain appeared to be centered around the eye and was described as if […] were being poked in the eye. The pain also involved the left cheek and left scalp. They could not identify any specific trigger to the pain but did note that it was accompanied by tenderness to touch of the scalp on the left side of the head, including sensitivity to hair brushing. When the pain was present they would be aware of it upon awakening in the morning and it would persist throughout the day.
They had no other headache types, and had not experienced episodes of nasal stuffiness, or pupillary changes. They noted occasional excess lacrimation of the left eye. At one point they were investigated for potential ‘sinus problems’ and no sinus condition was diagnosed. […] […] self-medicated with occasional paracetamol which provided modest relief.
The subject began a daily treatment regimen with Axona®, a medical food containing the active ingredient tricaprylin.
At the time of presentation the headache had recurred to an intensity of 4-6/10 and they were restarted on a course of Axona®, starting with 5 g tricaprylin per day, increasing over 2 weeks to 20 g a day.

[2] = system: participants with frequent migraine; assay: randomised, double-blind, placebo-controlled study of tricaprylin as AC-SD-03 for the reduction of migraine; format: in vivo, human
Description: This is a randomised, double-blind, placebo-controlled, parallel-group, multi-centre study of tricaprylin as AC-SD-03 compared with placebo for the reduction of migraine in participants with frequent migraine.
Following a screening period of up to 2 weeks, the study duration is 17 weeks including a 4-week baseline measurement period, after which randomisation occurs, a 12-week treatment period and a 1-week safety follow-up period.
The study will be completed in two parts. In Part 1, 54 participants will be randomised to receive tricaprylin as AC-SD-03, or placebo, in a 1:1 ratio. Once 54 participants are randomised, enrolment will be paused until the randomised participants have completed the study. Based on an unblinded analysis of the data from all evaluable patients from Part 1, a decision to proceed to Part 2 (enrolment of additional participants) will be taken. The decision to continue to Part 2 will be made by the Sponsor, based on a number of factors including the one-sided p-value for the analysis of the primary endpoint, ΔMDMth3, the safety and tolerability profile observed during Part 1, the observed between-subject variability, as well as trial conduct feasibility. The size of Part 2 will be determined by the between-subject variability observed in Part 1, and will be between 80 and 180 participants.
Investigational Medicinal Products: The formulation AC-SD-03 contains the active compound tricaprylin and excipients, 1:1.5. Thus 75 g AC-SD-03 contains 30 g tricaprylin and 45 g excipients (carrier, emulsifiers and flavouring). The placebo formulation, AC-SD-03P, contains 30 g safflower oil in place of the active compound tricaprylin and identical excipients to the active formulation.
Treatment Groups and Duration: At the Baseline Visit, all participants will receive a sentinel dose of 12.5 g AC-SD-03 (containing 5 g tricaprylin). […] Those that do tolerate the sentinel dose and meet other eligibility criteria, will enter the baseline measurement period of 4 weeks to determine migraine day participant eligibility for the study and to establish baseline data for comparison of endpoints during the study.
After the 4 weeks baseline measurement period, those who record 4-24 migraine days per month will be randomised to AC-SD-03 or placebo (AC-SD-03P) and will titrate from 12.5 g twice a day to 75 g twice a day, over the course of 2 weeks. Participants who have fewer than four or greater than 24 headache days per month in the baseline period will be discontinued from the study. The participant should not be told the number of migraine headache days on which eligibility is based to avoid biased reporting.
Once titration has completed, all participants will continue on the target dose they are on over an additional 10-week maintenance period.
The primary endpoint will be change from baseline in the number of migraine headache days during Month 3 (ΔMDMth3).
The secondary endpoints are: • Change from baseline in the number of migraine headache days during Month 1 (ΔMDMth1) and Month 2 (ΔMDMth2) of treatment and overall, from Months 1-3; • Change from baseline in duration of migraine of moderate to severe intensity during treatment months 1, 2 and 3; • Change from baseline in duration of migraine during treatment months 1, 2 and 3; • The proportion of participants with a 50% reduction from baseline in number of migraine headache days in treatment months 1, 2, and 3; • Change from baseline in monthly acute migraine medicine use during treatment months 1, 2 and 3; • Time to first usage of acute migraine medication; • Change from baseline Headache Impact Test (HIT-6) score at the end of Months 1, 2 and 3; • Incidence of adverse events; • Clinical safety laboratory tests; • Vital signs, ECGs, C-SSRS; […]

[3] = in-vitro digestion assays of emulsion; format: in vitro ADME; details: intestinal and/or colon pH vs stomach pH
Description: In certain embodiments, the emulsion formed may be stable at stomach pH, e.g., at a pH of about 1 to about 3, about 1.2 to 2.9, etc. In certain embodiments, the emulsion formed may be stable at intestinal and/or colon pH, e.g., at a pH of about 5 to about 7, about 5.5 to about 6.9, etc. […] In accordance with certain aspects of the disclosure, preferential release of tricaprylin in the intestines and/or colon rather than the stomach may increase bioavailability of the tricaprylin given the location of lipid digestion enzymes in these areas.

SMILES: O=C(O)CCCO [GHB]
- prevention of CH attacks (CH attacks): has been shown to prevent CH attacks

SMILES: CN(C)CCC=C1c2ccccc2CCc2ccccc21 [amitriptyline]
- effect on degree of discomfort ([1]; 10 mg, earlier treatment of the same patient): reduced the degree of discomfort partially
- adverse effect ([1]; 10 mg, earlier treatment of the same patient, discontinued): fatigue

SMILES: CC(=O)Nc1ccc(O)cc1 [paracetamol]
- relief of cephalgia ([1]; occasional self-medication): modest relief

SMILES: CCCCCCCC(=O)OCC(COC(=O)CCCCCCC)OC(=O)CCCCCCC [tricaprylin]
- Discontinued treatment prior to completion, number of subjects ([2]; 12-week treatment, 40 treated): 18
- Discontinued treatment prior to completion, percent of subjects ([2]; 12-week treatment, 40 treated): (45.0%)
- Primary reason for discontinuation: Adverse Event, number of subjects ([2]; 12-week treatment, 40 treated): 12
- Primary reason for discontinuation: Adverse Event, percent of subjects ([2]; 12-week treatment, 40 treated): (30.0%)
- Change from baseline in migraine headache days, Month 2 ([2]; Month 2, vs placebo, one-sided p=0.066 vs target of p<0.2): clinically-relevant benefit
- Change from baseline in migraine headache days, Month 3 (primary endpoint) ([2]; Month 3, EEITS, vs placebo, p=0.269 vs target of p<0.2): positive, clinically-relevant trend
- release of encapsulated tricaprylin from emulsion [3]: released from emulsion at intestinal and/or colon pH

From patent publication US20250127748A1, “METHODS FOR THE TREATMENT OF MIGRAINE AND RELATED HEADACHE SYMPTOMS USING TRICAPRYLIN” (priority 2021, published 2025)
